Source: patent US20230399298A1 (priority 2020, published 2023)

Experiments:
[1] = Raw material accelerated stability comparison test (40° C., RH 75%, light-shielding seal, HPLC); type: physicochemical
Procedure: (§1) The HPLC conditions used in the present disclosure were as follows, and the purity of donepezil ether palmitate hydrochloride was measured. • 1) detector: ultraviolet absorption photometer (measurement wavelength: 276 nm) • 2) column: YMC-Pack Pro C18 (4.6×250 mm, 5 μm) • 3) mobile phase A: Solution obtained by dissolving 1.88 g of sodium 1-hexanesulfonate in 1000 mL of purified water, and then adding 1.0 mL of phosphoric acid thereto, wherein each amount of reaction substances was accurately weighed. • 4) mobile phase B: acetonitrile
accelerated stability over time of donepezil ether palmitate (DEP) and donepezil ether palmitate hydrochloride (DEP HCl).
Specifically, in the experiments, each compound was stored in a light-shielding seal under accelerated conditions (40° C., RH 75%), and the chemical stability thereof was analyzed by HPLC (purity and increased amount of related substances).

[2] = Raw material harsh stability comparison test (60° C., HPLC); type: physicochemical
Procedure: as §1
Experiments were conducted to evaluate the raw material harsh stability over time of donepezil ether palmitate (DEP) and donepezil ether palmitate hydrochloride (DEP HCl).
Specifically, in the experiments, each compound was stored under a condition of 60° C., and the chemical stability thereof was analyzed by HPLC (purity and increased amount of related substances).

[3] = Formulation stability comparison test (suspension in benzyl benzoate and castor oil, 60° C. and 80° C., HPLC); type: physicochemical
Procedure: as §1
Experiments were conducted to evaluate the formulation stability over time of donepezil ether palmitate (DEP) and donepezil ether palmitate hydrochloride (DEP HCl).
Specifically, each of DEP and DEP HCl was mixed with benzyl benzoate and castor oil to prepare a suspension, and then stored at 60° C. and 80° C. The chemical stability was analyzed by HPLC (purity and increased amount of related substances), and results thereof are shown in Table 4.

CCCCCCCCCCCCCCOCC(=O)OC1=C(CC2CCN(Cc3ccccc3)CC2)Cc2cc(OC)c(OC)cc21 [DEP, 2-((1-benzylpiperidin-4-yl)methyl)-5,6-dimethoxy-1H-inden-3-yl 2-(tetradecyloxy)acetate]
purity decreased by ([1]; 6th month versus initial): about 2.47% | PT impurity ([1]; Initial): 0.02% | Purity ([1]; Initial): 99.22% | PT impurity ([1]; Month 1): 0.04% | Purity ([1]; Month 1): 99.05% | PT impurity ([1]; Month 3): 0.08% | Purity ([1]; Month 3): 98.65% | PT impurity ([1]; Month 6): 0.13% | Purity ([1]; Month 6): 96.75% | melting point: 55.1 °C | purity decreased by ([2]; 2nd week versus initial): about 18.60% | PT impurity ([2]; Day 1): 1.61% | Purity ([2]; Day 1): 95.44% | PT impurity ([2]; Day 3): 3.33% | Purity ([2]; Day 3): 92.05% | Purity ([2]; Initial): 99.76% | PT impurity ([2]; Week 2): 4.39% | Purity ([2]; Week 2): 81.16% | Purity ([3]; Day 1 at 80° C.): 97.96% | Purity ([3]; Initial): 99.79% | Purity ([3]; Week 1 at 60° C.): 97.54%
